Patent US20260262643A1, “HERBICIDAL BENZOXAZINES” (FMC CORPORATION, priority 2022, published 2026)

Tests used:
green foxtail [1] = experiment: Test C preemergence; type: in vivo, Setaria viridis
Procedure, shortened: (§1)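 Soil-applied (pre) and foliar (post, 1–2 leaf, 2–10 cm) sprays; surfactant-containing non-phytotoxic solvent vehicle; loam/sand substrate. Readout: visual % control at 10 d, greenhouse, versus untreated.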

pigweed, palmer [2] = experiment: Test C postemergence; type: in vivo, Amaranthus palmeri; conditions: 10 days, 0 to 100 scale (0 no effect, 100 complete control)
Procedure, shortened: as §1

barnyardgrass [3] = experiment: Test D flooded paddy test; type: in vivo, Echinochloa crus-galli; conditions: 250 g ai/ha, applied to paddy water, visual rating after 13 to 14 days, scale 0 to 100 (0 no effect, 100 complete control)
Procedure, shortened: (§2)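 Rating scale 0–100 (0 no effect, 100 complete control), visual, versus controls. Readout at 13–14 days after in-water application to 2-leaf plants in pots flooded 3 cm deep.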

horseweed = experiment: Test C postemergence; type: in vivo, Erigeron canadensis; conditions: 10 days, 0 to 100 scale (0 no effect, 100 complete control)
Procedure, shortened: as §1

corn [4] = experiment: Test C preemergence; type: in vivo, Zea mays
Procedure, shortened: as §1

wheat [5] = experiment: Test C preemergence; type: in vivo, Triticum aestivum
Procedure, shortened: as §1

galium = experiment: Test C postemergence; type: in vivo, Galium aparine; conditions: 10 days, 0 to 100 scale (0 no effect, 100 complete control)
Procedure, shortened: as §1

kochia [6] = experiment: Test C postemergence; type: in vivo, Bassia scoparia; conditions: 10 days, 0 to 100 scale (0 no effect, 100 complete control)
Procedure, shortened: as §1

rice = experiment: Test D flooded paddy test; type: in vivo, Oryza sativa; conditions: 250 g ai/ha, applied to paddy water, visual rating after 13 to 14 days, scale 0 to 100 (0 no effect, 100 complete control)
Procedure, shortened: as §2

barnyardgrass [7] = experiment: Test C preemergence; type: in vivo, Echinochloa crusgalli
Procedure, shortened: as §1

blackgrass [8] = experiment: Test C preemergence; type: in vivo, Alopecurus myosuroides
Procedure, shortened: as §1

green foxtail [9] = experiment: Test C postemergence; type: in vivo, Setaria viridis; conditions: 10 days, 0 to 100 scale (0 no effect, 100 complete control)
Procedure, shortened: as §1

ragweed [10] = experiment: Test C postemergence; type: in vivo, Ambrosia artemisiifolia; conditions: 10 days, 0 to 100 scale (0 no effect, 100 complete control)
Procedure, shortened: as §1

kochia [11] = experiment: Test C preemergence; type: in vivo, Bassia scoparia
Procedure, shortened: as §1

oat, wild [12] = experiment: Test C preemergence; type: in vivo, Avena fatua
Procedure, shortened: as §1

ryegrass, Italian [13] = experiment: Test C postemergence; type: in vivo, Lolium multiflorum; conditions: 10 days, 0 to 100 scale (0 no effect, 100 complete control)
Procedure, shortened: as §1

oat, wild [14] = experiment: Test C postemergence; type: in vivo, Avena fatua; conditions: 10 days, 0 to 100 scale (0 no effect, 100 complete control)
Procedure, shortened: as §1

sedge, umbrella = experiment: Test D flooded paddy test; type: in vivo, Cyperus difformis; conditions: 250 g ai/ha, applied to paddy water, visual rating after 13 to 14 days, scale 0 to 100 (0 no effect, 100 complete control)
Procedure, shortened: as §2

soybean [15] = experiment: Test C postemergence; type: in vivo, Glycine max; conditions: 10 days, 0 to 100 scale (0 no effect, 100 complete control)
Procedure, shortened: as §1

corn [16] = experiment: Test C postemergence; type: in vivo, Zea mays; conditions: 10 days, 0 to 100 scale (0 no effect, 100 complete control)
Procedure, shortened: as §1

blackgrass [17] = experiment: Test C postemergence; type: in vivo, Alopecurus myosuroides; conditions: 10 days, 0 to 100 scale (0 no effect, 100 complete control)
Procedure, shortened: as §1

ryegrass, Italian [18] = experiment: Test C preemergence; type: in vivo, Lolium multiflorum
Procedure, shortened: as §1

soybean [19] = experiment: Test C preemergence; type: in vivo, Glycine max
Procedure, shortened: as §1

barnyardgrass [20] = experiment: Test C postemergence; type: in vivo, Echinochloa crusgalli; conditions: 10 days, 0 to 100 scale (0 no effect, 100 complete control)
Procedure, shortened: as §1

ducksalad = experiment: Test D flooded paddy test; type: in vivo, Heteranthera limosa; conditions: 250 g ai/ha, applied to paddy water, visual rating after 13 to 14 days, scale 0 to 100 (0 no effect, 100 complete control)
Procedure, shortened: as §2

wheat [21] = experiment: Test C postemergence; type: in vivo, Triticum aestivum; conditions: 10 days, 0 to 100 scale (0 no effect, 100 complete control)
Procedure, shortened: as §1

ragweed [22] = experiment: Test C preemergence; type: in vivo, Ambrosia artemisiifolia
Procedure, shortened: as §1

pigweed, palmer [23] = experiment: Test C preemergence; type: in vivo, Amaranthus palmeri
Procedure, shortened: as §1

[24] = 500 g ai/ha, preemergence, 0 to 100 scale (0 no effect, 100 complete control)
[25] = Preemergence, 125 g ai/ha, 0 to 100 scale, 0 no effect, 100 complete control

Cc1ccc(-n2cnc(C(C)C)n2)cc1C(=O)N1CC(C(F)(F)F)Oc2c(Cl)cccc21 (stereo not shown) [Compound 354]
Foxtail, Green plant response rating (green foxtail [1]; [24]): 100
Plant response rating, Foxtail, Green (green foxtail [1]; [25]): 100
Plant response rating, Pigweed, Palmer (pigweed, palmer [2]; 500 g ai/ha, postemergence): 100
Plant response rating, Pigweed, Palmer (pigweed, palmer [2]; Postemergence, 125 g ai/ha): 80
Plant response rating, Barnyardgrass (Flood) (barnyardgrass [3]): 0
Plant response rating, Horseweed (horseweed; 500 g ai/ha, postemergence): 80
Plant response rating, Horseweed (horseweed; Postemergence, 125 g ai/ha): 30
Corn plant response rating (corn [4]; [24]): 40
Plant response rating, Corn (corn [4]; [25]): 20
Wheat plant response rating (wheat [5]; [24]): 90
Plant response rating, Wheat (wheat [5]; [25]): 30
Plant response rating, Galium (galium; 500 g ai/ha, postemergence): 100
Plant response rating, Galium (galium; Postemergence, 125 g ai/ha): 100
Plant response rating, Kochia (kochia [6]; 500 g ai/ha, postemergence): 90
Plant response rating, Kochia (kochia [6]; Postemergence, 125 g ai/ha): 80
Plant response rating, Rice (Flood) (rice): 0
Barnyardgrass plant response rating (barnyardgrass [7]; [24]): 100
Plant response rating, Barnyardgrass (barnyardgrass [7]; [25]): 90
Blackgrass plant response rating (blackgrass [8]; [24]): 90
Plant response rating, Blackgrass (blackgrass [8]; [25]): 80
Plant response rating, Foxtail, Green (green foxtail [9]; 500 g ai/ha, postemergence): 90
Plant response rating, Foxtail, Green (green foxtail [9]; Postemergence, 125 g ai/ha): 40
Plant response rating, Ragweed (ragweed [10]; 500 g ai/ha, postemergence): 70
Plant response rating, Ragweed (ragweed [10]; Postemergence, 125 g ai/ha): 50
Kochia plant response rating (kochia [11]; [24]): 80
Plant response rating, Kochia (kochia [11]; [25]): 0
Oat, Wild plant response rating (oat, wild [12]; [24]): 90
Plant response rating, Oat, Wild (oat, wild [12]; [25]): 80
Plant response rating, Ryegrass, Italian (ryegrass, Italian [13]; 500 g ai/ha, postemergence): 70
Plant response rating, Ryegrass, Italian (ryegrass, Italian [13]; Postemergence, 125 g ai/ha): 20
Plant response rating, Oat, Wild (oat, wild [14]; 500 g ai/ha, postemergence): 90
Plant response rating, Oat, Wild (oat, wild [14]; Postemergence, 125 g ai/ha): 60
Plant response rating, Sedge, Umbrella (Flood) (sedge, umbrella): 0
Plant response rating, Soybean (soybean [15]; 500 g ai/ha, postemergence): 100
Plant response rating, Soybean (soybean [15]; Postemergence, 125 g ai/ha): 100
Plant response rating, Corn (corn [16]; 500 g ai/ha, postemergence): 60
Plant response rating, Corn (corn [16]; Postemergence, 125 g ai/ha): 20
Plant response rating, Blackgrass (blackgrass [17]; 500 g ai/ha, postemergence): 20
Plant response rating, Blackgrass (blackgrass [17]; Postemergence, 125 g ai/ha): 0
Ryegrass, Italian plant response rating (ryegrass, Italian [18]; [24]): 100
Plant response rating, Ryegrass, Italian (ryegrass, Italian [18]; [25]): 90
Soybean plant response rating (soybean [19]; [24]): 100
Plant response rating, Soybean (soybean [19]; [25]): 50
Plant response rating, Barnyardgrass (barnyardgrass [20]; 500 g ai/ha, postemergence): 70
Plant response rating, Barnyardgrass (barnyardgrass [20]; Postemergence, 125 g ai/ha): 30
Plant response rating, Ducksalad (Flood) (ducksalad): 0
Plant response rating, Wheat (wheat [21]; 500 g ai/ha, postemergence): 60
Plant response rating, Wheat (wheat [21]; Postemergence, 125 g ai/ha): 30
Ragweed plant response rating (ragweed [22]; [24]): 100
Plant response rating, Ragweed (ragweed [22]; [25]): 10
Pigweed, Palmer plant response rating (pigweed, palmer [23]; [24]): 100
Plant response rating, Pigweed, Palmer (pigweed, palmer [23]; [25]): 100
